Drawing on patent US10392404B2, “Compounds and compositions as kinase inhibitors” (NOVARTIS AG, priority 2014, dated 2019), this text covers IC50 for 27 molecules.

One test deals with T1, b-Raf (V600E) (Homo sapiens, UniProt P15056, V600E).
T1 construct: made in house
As to the kind of experiment: In vitro Raf activity determination (Alpha Screen, biotinylated kinase-dead MEK1 substrate), B-Raf. In kind it is biochemical. Particulars: b-Raf (V600E) approximately 4 pM; ATP 10 μM; pre-incubation 60 minutes; reaction 3 hours at room temperature. The method, boiled down: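 IC50 from non-linear regression of AlphaScreen phospho-MEK signal (anti-p-MEK1/2 antibody). b-Raf(V600E), about 4 pM, phosphorylated ~10 nM biotinylated K97R MEK1 with 10 μM ATP for 3 h at room temperature after 60 min compound pre-incubation; buffer pH 7.5 Tris, 15 mM MgCl2, 1 mM DTT.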

The target in another test is T2, C-RAF (Homo sapiens, UniProt P04049, Y340E/Y341E).
T2 construct: His tag (implied by nickel chromatography) (cleaved yes); StrepII tag (cleaved yes); made in house; host or cells: Sf9 insect cells (baculovirus), CRAF and h14-3-3 zeta co-expressed; MEK1 substrate from E. coli
Description: In vitro Raf activity determination (Alpha Screen, biotinylated kinase-dead MEK1 substrate), C-Raf. In kind it is biochemical. Particulars: c-Raf approximately 4 nM; ATP 1 μM; pre-incubation 60 minutes; reaction 1 hour at room temperature. The gist of the method: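 AlphaScreen read-out of MEK phosphorylation using an anti-phospho-MEK1/2 antibody after a 1 hour room-temperature reaction at 1 μM ATP. Enzyme: approximately 4 nM Sf9-expressed full-length activated C-Raf (Y340E/Y341E, with 14-3-3ζ) on approximately 10 nM biotinylated K97R MEK1, after 60 min compound preincubation. IC50 by non-linear fit.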

SMILES strings stand for the structures. pIC50: −log10 of the molar value.

T2 sequence (P04049 whole entry Y340E/Y341E): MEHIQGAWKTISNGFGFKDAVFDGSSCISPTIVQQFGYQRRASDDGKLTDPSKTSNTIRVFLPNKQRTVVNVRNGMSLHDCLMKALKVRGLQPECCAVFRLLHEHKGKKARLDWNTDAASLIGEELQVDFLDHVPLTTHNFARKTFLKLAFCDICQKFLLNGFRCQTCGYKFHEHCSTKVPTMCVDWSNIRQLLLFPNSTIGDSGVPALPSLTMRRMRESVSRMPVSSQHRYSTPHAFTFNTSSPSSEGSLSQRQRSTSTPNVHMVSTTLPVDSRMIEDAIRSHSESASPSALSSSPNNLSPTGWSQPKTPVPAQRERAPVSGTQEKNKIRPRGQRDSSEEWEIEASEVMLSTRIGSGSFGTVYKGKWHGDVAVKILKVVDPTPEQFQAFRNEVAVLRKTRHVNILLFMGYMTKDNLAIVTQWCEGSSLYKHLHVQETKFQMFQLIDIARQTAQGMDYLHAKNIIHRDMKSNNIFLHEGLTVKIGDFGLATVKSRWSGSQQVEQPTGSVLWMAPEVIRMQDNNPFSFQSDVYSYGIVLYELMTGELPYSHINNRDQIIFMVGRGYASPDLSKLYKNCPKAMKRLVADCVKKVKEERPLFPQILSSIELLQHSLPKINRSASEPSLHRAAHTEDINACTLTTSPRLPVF
T2 sequence (P63104 whole entry partner): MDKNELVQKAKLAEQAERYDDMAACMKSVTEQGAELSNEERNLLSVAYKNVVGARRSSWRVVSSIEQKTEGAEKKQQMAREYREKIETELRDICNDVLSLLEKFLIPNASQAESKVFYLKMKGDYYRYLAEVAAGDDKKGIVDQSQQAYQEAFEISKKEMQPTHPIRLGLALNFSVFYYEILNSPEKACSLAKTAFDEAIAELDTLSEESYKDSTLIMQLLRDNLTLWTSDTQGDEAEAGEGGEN
T1 sequence (P15056 whole entry V600E): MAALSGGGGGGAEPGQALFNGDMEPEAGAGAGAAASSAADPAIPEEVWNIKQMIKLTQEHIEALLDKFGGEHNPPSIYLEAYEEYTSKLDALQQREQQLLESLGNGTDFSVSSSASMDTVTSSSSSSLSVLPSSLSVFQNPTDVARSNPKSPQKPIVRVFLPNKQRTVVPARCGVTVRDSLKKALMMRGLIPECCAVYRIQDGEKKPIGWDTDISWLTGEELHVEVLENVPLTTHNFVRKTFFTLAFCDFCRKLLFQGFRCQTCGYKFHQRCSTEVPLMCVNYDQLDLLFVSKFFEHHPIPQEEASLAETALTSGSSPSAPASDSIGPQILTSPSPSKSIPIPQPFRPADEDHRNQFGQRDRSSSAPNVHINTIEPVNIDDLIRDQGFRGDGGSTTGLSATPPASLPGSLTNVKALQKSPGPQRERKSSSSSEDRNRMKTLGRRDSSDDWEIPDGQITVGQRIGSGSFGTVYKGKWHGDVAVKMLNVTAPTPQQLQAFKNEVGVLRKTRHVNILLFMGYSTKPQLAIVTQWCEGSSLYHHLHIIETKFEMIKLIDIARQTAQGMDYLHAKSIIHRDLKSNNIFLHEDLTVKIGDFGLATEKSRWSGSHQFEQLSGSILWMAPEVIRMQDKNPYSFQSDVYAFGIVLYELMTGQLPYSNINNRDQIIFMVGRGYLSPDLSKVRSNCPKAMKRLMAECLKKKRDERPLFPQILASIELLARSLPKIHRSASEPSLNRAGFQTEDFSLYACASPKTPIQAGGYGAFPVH

In general, pIC50 refers to the IC50 on a negative log10 scale, so that one unit is a factor of ten. Read a high pIC50 as a small IC50. On to `Cc1ccc(NC(=O)c2cccc(C(F)(F)F)c2)cc1-c1cnc(NC(C)C)c(C#N)c1` [Example 18, N-(3-(5-cyano-6-(isopropylamino)pyridin-3-yl)-4-methylphenyl)-3-(trifluoromethyl) benzamide], for which the results for the pIC50 against b-Raf (V600E) and on C-RAF were 8.46 and 9.41, respectively.

For `Cc1ncc(NC(=O)c2ccnc(C(C)(C)C#N)c2)cc1-c1cnc(Oc2ccccn2)c(C#N)c1` [Example 54, N-(5′-cyano-2-methyl-6′-(pyridin-2-yloxy)-[3,3′-bipyridin]-5-yl)-2-(2-cyanopropan-2-yl)isonicotinamide], the negative logarithm of the IC50 (pIC50) at b-Raf (V600E) is 7.46; at C-RAF, 8.10.

As to `COCCNc1ncc(-c2cc(NC(=O)c3cnnc(C(F)(F)F)c3)cnc2C)cc1C#N` [Example 203, N-(5′-cyano-6′-((2-methoxyethyl)amino)-2-methyl-[3,3′-bipyridin]-5-yl)-6-(trifluoromethyl) pyridazine-4-carboxamide], the results for the pIC50 against b-Raf (V600E) and against C-RAF were 7.32 and 8.09, respectively.

Take `Cc1ccc(NC(=O)c2ccnc(C(C)(C)C#N)c2)cc1-c1cnc(NC(C)C)c(C#N)c1` [Example 20, N-(3-(5-cyano-6-(isopropylamino)pyridin-3-yl)-4-methylphenyl)-2-(2-cyanopropan-2-yl)isonicotinamide]: the pIC50 is 8.78 against b-Raf (V600E) and 9.33 against C-RAF.

With `Cc1ncc(NC(=O)c2ccnc(C(C)(C)C#N)c2)cc1-c1cnc(N2C[C@H]3CC[C@@H](C2)O3)c(C#N)c1` [Example 88, N-(6′-((1R,5S)-8-oxa-3-azabicyclo[3,2,1]octan-3-yl)-5′-cyano-2-methyl-[3,3′-bipyridin]-5-yl)-2-(2-cyanopropan-2-yl)isonicotinamide], the pIC50 on b-Raf (V600E) was 8.69; against C-RAF, 9.21.

On to `Cc1ccc(NC(=O)c2cccc(S(C)(=O)=O)c2)cc1-c1cnc(N2CCOCC2)c(C#N)c1` [Example 157, N-(3-(5-cyano-6-morpholinopyridin-3-yl)-4-methylphenyl)-(methylsulfonyl) benzamide], for which the negative logarithm of the IC50 (pIC50) was 9.52 against b-Raf (V600E) and 10.25 against C-RAF.

For the molecule `COCCOc1ncc(-c2cc(NC(=O)c3ccnc(C(F)(F)F)c3)cnc2C)cc1C#N` [Example 93, N-(5′-cyano-6′-(2-methoxyethoxy)-2-methyl-[3,3′-bipyridin]-5-yl)-2-(trifluoromethyl) isonicotinamide], the pIC50 at b-Raf (V600E) was 8.16; at C-RAF, 8.76.

Take `Cc1ccc(NC(=O)c2cc(C(C)C)on2)cc1-c1cnc(N(C)C)c(C#N)c1` [Example 258, N-(3-(5-cyano-6-(dimethylamino)pyridin-3-yl)-4-methylphenyl)-5-isopropylisoxazole-3-carboxamide]: the pIC50 on b-Raf (V600E) was 8.93; against C-RAF, 9.80.

On to `COCCNc1ncc(-c2cc(NC(=O)c3cnnc(C(C)(C)C#N)c3)cnc2C)cc1C#N` [Example 202, N-(5′-cyano-6′-((2-methoxyethyl)amino)-2-methyl-[3,3′-bipyridin]-5-yl)-6-(2-cyanopropan-2-yl)pyridazine-4-carboxamide], for which the pIC50 against b-Raf (V600E) was 7.49; against C-RAF it was 8.32.

`Cc1ccc(NC(=O)c2ccnc(C(C)(C)C#N)c2)cc1-c1cnc(N)c(C#N)c1` [Example 2, N-(3-(6-amino-5-cyanopyridin-3-yl)-4-methylphenyl)-2-(2-cyanopropan-2-yl) isonicotinamide]: the results for the pIC50 against b-Raf (V600E) and against C-RAF were 8.51 and 9.18, respectively.

Regarding `Cc1ncc(NC(=O)c2ccnc(C(F)F)c2)cc1-c1cnc(NC2CCOCC2)c(C#N)c1` [Example 171, N-(5′-cyano-2-methyl-6′-((tetrahydro-2H-pyran-4-yl)amino)-[3,3′-bipyridin]-5-yl)-2-(difluoromethyl) isonicotinamide], the pIC50 was 8.38 at b-Raf (V600E) and 9.03 against C-RAF.

For the molecule `Cc1ncc(NC(=O)c2ccnc(C(C)(C)C#N)c2)cc1-c1cnc(N2CCO[C@H](C)C2)c(C#N)c1` [Example 75, (R)-N-(5′-cyano-2-methyl-6′-(2-methylmorpholino)-[3,3′-bipyridin]-5-yl)-2-(2-cyanopropan-2-yl)isonicotinamide], the values for the pIC50 against b-Raf (V600E) and on C-RAF were 8.42 and 8.92, respectively.

As to `Cc1ncc(NC(=O)c2ccnc(C(C)(C)C#N)c2)cc1-c1cnc(N(C)C)c(C#N)c1` [Example 26, N-(5′-cyano-6′-(dimethylamino)-2-methyl-[3,3′-bipyridin]-5-yl)-2-(2-cyanopropan-2-yl)isonicotinamide], the pIC50 against b-Raf (V600E) was 7.82; against C-RAF, 8.75.

As to `Cc1ccc(NC(=O)c2ccnc(C(F)(F)F)c2)cc1-c1cnc(N2CC(C)(O)C2)c(C#N)c1` [Example 212, N-(3-(5-cyano-6-(3-hydroxy-3-methylazetidin-1-yl)pyridin-3-yl)-4-methylphenyl)-2-(trifluoromethyl) isonicotinamide], the negative-log IC50 (pIC50) was 8.94 against b-Raf (V600E) and 9.49 against C-RAF.

On to `Cc1ccc(NC(=O)c2ccnc(C(F)(F)F)c2)cc1-c1cnc(-c2cnn(C)c2)c(C#N)c1` [Example 124, N-(3-(5-cyano-6-(1-methyl-1H-pyrazol-4-yl)pyridin-3-yl)-4-methylphenyl)-2-(trifluoromethyl) isonicotinamide], for which the pIC50 on b-Raf (V600E) was 9.37; on C-RAF it was 10.13.

For the molecule `Cc1ncc(NC(=O)c2ccnc(C(C)(C)C#N)c2)cc1-c1cnc(NC2CCOC2)c(C#N)c1` (stereo in doubt) [Example 78a, (S)-N-(5′-cyano-2-methyl-6′-((tetrahydrofuran-3-yl)amino)-[3,3′-bipyridin]-5-yl)-2-(2-cyanopropan-2-yl)isonicotinamide], the values for the pIC50 at b-Raf (V600E) and against C-RAF were 7.91 and 8.50, respectively.

On to `Cc1ncc(NC(=O)c2ccnc(C(F)(F)F)c2)cc1-c1cnc(N2CC(O)C2)c(C#N)c1` [Example 69, N-(5′-cyano-6′-(3-hydroxyazetidin-1-yl)-2-methyl-[3,3′-bipyridin]-5-yl)-2-(trifluoromethyl) isonicotinamide], for which the pIC50 was 8.59 on b-Raf (V600E) and 9.34 at C-RAF.

For `Cc1ncc(NC(=O)c2cc(C(C)(C)F)ccn2)cc1-c1cnc(N2CCOCC2)c(C#N)c1` [Example 242, N-(5′-cyano-2-methyl-6′-morpholino-[3,3′-bipyridin]-5-yl)-4-(2-fluoropropan-2-yl)picolinamide], the pIC50 at b-Raf (V600E) is 8.50; at C-RAF it was 9.27.

Consider `Cc1ccc(NC(=O)c2ccnc(C3CC3)c2)cc1-c1cnc(N2CC(C)(O)C2)c(C#N)c1` [Example 219, N-(3-(5-cyano-6-(3-hydroxy-3-methylazetidin-1-yl)pyridin-3-yl)-4-methylphenyl)-2-cyclopropyl-isonicotinamide], for which the results for the negative logarithm of the IC50 (pIC50) on b-Raf (V600E) and on C-RAF were 8.88 and 9.77, respectively.

In the case of `Cc1ncc(NC(=O)c2ccnc(C(C)(C)O)c2)cc1-c1cnc(C2CCOCC2)c(C#N)c1` [Example 167, N-(5′-cyano-2-methyl-6′-(tetrahydro-2H-pyran-4-yl)-[3,3′-bipyridin]-5-yl)-2-(2-hydroxypropan-2-yl)isonicotinamide], the pIC50 at b-Raf (V600E) was 7.48; at C-RAF, 8.16.

Turning to `Cc1ncc(NC(=O)c2cc(C(C)(C)O)ccn2)cc1-c1cnc(N2CCOCC2)c(C#N)c1` [Example 234, N-(5′-cyano-2-methyl-6′-morpholino-[3,3′-bipyridin]-5-yl)-4-(2-hydroxypropan-2-yl)picolinamide], the pIC50 was 8.41 against b-Raf (V600E) and 8.65 on C-RAF.

As for `Cc1ncc(NC(=O)c2cccc(C(F)(F)F)c2)cc1-c1cnc(N)c(C#N)c1` [Example 4, N-(6′-amino-5′-cyano-2-methyl-[3,3′-bipyridin]-5-yl)-3-(trifluoromethyl) benzamide], the pIC50 against b-Raf (V600E) is 8.79; at C-RAF it was 9.68.

In the case of `Cc1ncc(NC(=O)c2ccnc(C3CC3)c2)cc1-c1cnc(N2CC(C)(O)C2)c(C#N)c1` [Example 188, N-(5′-cyano-6′-(3-hydroxy-3-methylazetidin-1-yl)-2-methyl-[3,3′-bipyridin]-5-yl)-2-cyclopropyl-isonicotinamide], the figures for the negative logarithm of the IC50 (pIC50) at b-Raf (V600E) and on C-RAF were 8.00 and 8.76, respectively.

Regarding `Cc1ncc(NC(=O)c2cnnc(C3CC3)c2)cc1-c1cnc(NC2CCOCC2)c(C#N)c1` [Example 200, N-(5′-cyano-2-methyl-6′-((tetrahydro-2H-pyran-4-yl)amino)-[3,3′-bipyridin]-5-yl)-6-cyclopropylpyridazine-4-carboxamide], the pIC50 at b-Raf (V600E) is 7.82; at C-RAF it was 8.62.

On to `Cc1ncc(NC(=O)c2cccc(C(F)(F)F)c2)cc1-c1cnc(N2CC(O)C2)c(C#N)c1` [Example 67, N-(5′-cyano-6′-(3-hydroxyazetidin-1-yl)-2-methyl-[3,3′-bipyridin]-5-yl)-3-(trifluoromethyl) benzamide], for which the pIC50 against b-Raf (V600E) is 8.91; against C-RAF, 9.65.

For `Cc1ccc(NC(=O)c2ccnc(C(C)(C)C#N)c2)cc1-c1cc(C#N)cnc1N` [Example 12, N-(3-(2-amino-5-cyanopyridin-3-yl)-4-methylphenyl)-2-(2-cyanopropan-2-yl)isonicotinamide], the pIC50 against b-Raf (V600E) is 7.56; against C-RAF, 8.74.

For `Cc1ncc(NC(=O)c2ccnc(C(F)(F)F)c2)cc1-c1cnc(Oc2ccccn2)c(C#N)c1` [Example 52, N-(5′-cyano-2-methyl-6′-(pyridin-2-yloxy)-[3,3′-bipyridin]-5-yl)-2-(trifluoromethyl) isonicotinamide], the negative-log IC50 (pIC50) against b-Raf (V600E) was 7.57; on C-RAF, 8.03.
